In patent US20250145595A1, “ANTAGONISTS OF THE MUSCARINIC ACETYLCHOLINE RECEPTOR M4” (Vanderbilt University, priority 2021, published 2025):

Key:
Human M4 = biological target: T1, Human M4 (Homo sapiens, UniProt P08173); experiment: mAChR M4 cell-based functional assay (calcium flux, antagonism of EC80 acetylcholine response, M4/Gqi5/CHO-K1 cells); conditions: % ACh maximum at 30 μM
T1 construct: expressed in transfected cells; host or cells: CHO-K1 (ATCC), stably co-transfected with Gqi5
T1 sequence (P08173 1-479): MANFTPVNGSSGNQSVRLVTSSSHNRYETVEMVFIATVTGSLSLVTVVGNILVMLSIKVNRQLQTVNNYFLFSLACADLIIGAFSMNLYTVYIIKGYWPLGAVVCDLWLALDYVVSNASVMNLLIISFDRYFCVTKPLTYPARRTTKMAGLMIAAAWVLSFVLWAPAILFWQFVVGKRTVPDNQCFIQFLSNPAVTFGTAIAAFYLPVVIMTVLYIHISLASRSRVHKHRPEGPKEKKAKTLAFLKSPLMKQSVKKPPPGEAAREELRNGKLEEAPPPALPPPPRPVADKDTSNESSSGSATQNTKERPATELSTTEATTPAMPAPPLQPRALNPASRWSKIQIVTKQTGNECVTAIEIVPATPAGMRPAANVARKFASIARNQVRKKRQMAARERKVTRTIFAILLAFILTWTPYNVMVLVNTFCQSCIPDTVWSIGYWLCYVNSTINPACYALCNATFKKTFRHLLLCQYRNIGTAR
Description: Human or rat M4 cDNA, along with the chimeric G protein Gqi5, were transfected into Chinese hamster ovary (CHO-K1) cells purchased from the American Type Culture Collection using Lipofectamine2000. M4/Gqi5/CHO cells were grown in Ham's F-12 medium containing 10% heat-inactivated fetal bovine serum (FBS), 20 mM HEPES, 500 μg/mL G418 sulfate, and 200 μg/mL Hygromycin B.
For high throughput measurement of agonist-evoked increases in intracellular calcium, CHO-K1 cells stably expressing muscarinic receptors were plated in growth medium lacking G^418 and hygromycin at 15,000 cells/20 μL/well in Greiner 384-well black-walled, tissue culture (TC)-treated, clear-bottom plates (VWR). Cells were incubated overnight at 37° C. and 5% CO2. The next day, cells were washed using an ELX 405 (BioTek) with assay buffer; the final volume was then aspirated to 20 μL. Next, 20 μL of a […] of Fluo-4/acetoxymethyl ester (Invitrogen, Carlsbad, CA), prepared as a 2.3 mM stock in DMSO and mixed in a 1:1 ratio with 10% (w/v) Pluronic F-127 and diluted in assay buffer, was added to the wells and the cell plates were incubated for 50 min at 37° C. and 5% CO2. Dye was removed by washing with the ELX 405 and the final volume was aspirated to 20 μL. Compound master plates were formatted in a 10-point concentration-response curve (CRC) format (1:3 dilutions) in 100% DMSO with a starting concentration of 10 or 1 mM using a BRAVO liquid handler (Agilent). Test compound CRCs were then transferred to daughter plates (240 nL) using the Echo acoustic plate reformatter (Labcyte, Sunnyvale, CA) and then diluted into assay buffer (40 μL) to a 2× stock using a Thermo Fisher Combi (Thermo Fisher Scientific, Waltham, MA).
Calcium flux was measured using the Functional Drug Screening System (FDSS) 6000 or 7000 (Hamamatsu Corporation, Tokyo, Japan) as an increase in the fluorescent static ratio. Compounds were applied to cells (20 μL, 2×) using the automated system of the FDSS at 2 seconds into the protocol and the data were collected at 1 Hz. At 143 s, 10 μL of an EC20 concentration of the muscarinic receptor agonist acetylcholine was added (5×), followed by the addition of 12 μL of an EC80 concentration of acetylcholine at the 268 s time point (5×). Agonist activity was analyzed as a concentration-dependent increase in calcium mobilization upon compound addition. Positive allosteric modulator activity was analyzed as a concentration-dependent increase in the EC20 acetylcholine response. Antagonist activity was analyzed as a concentration-dependent decrease in the EC80 acetylcholine response; for the purposes of the tables herein, an IC50 (inhibitory concentration 50) was calculated as a concentration-dependent decrease of the response elicited by an EC80 concentration of acetylcholine. Concentration-response curves were generated using a four-parameter logistical equation in XLFit curve fitting software (IDBS, Bridgewater, NJ) for Excel (Microsoft, Redmond, WA) or Prism (GraphPad Software, Inc., San Diego, CA) or the Dotmatics software platform (Dotmatics, Bishop's Stortford, UK).
Compounds were synthesized as described above. Activity (IC50 and Emin) was determined in the mAChR M4 cell-based functional assay as described above and the data are shown in Table 2.

Human M1 = biological target: T2, Human M1 (Homo sapiens, UniProt P11229); experiment: mAChR M1 cell-based functional assay (calcium flux, antagonism of EC80 acetylcholine response, hM1 CHO-K1 cells); conditions: compound 61 versus compound 62, data of Table 3
T2 sequence (P11229 1-460): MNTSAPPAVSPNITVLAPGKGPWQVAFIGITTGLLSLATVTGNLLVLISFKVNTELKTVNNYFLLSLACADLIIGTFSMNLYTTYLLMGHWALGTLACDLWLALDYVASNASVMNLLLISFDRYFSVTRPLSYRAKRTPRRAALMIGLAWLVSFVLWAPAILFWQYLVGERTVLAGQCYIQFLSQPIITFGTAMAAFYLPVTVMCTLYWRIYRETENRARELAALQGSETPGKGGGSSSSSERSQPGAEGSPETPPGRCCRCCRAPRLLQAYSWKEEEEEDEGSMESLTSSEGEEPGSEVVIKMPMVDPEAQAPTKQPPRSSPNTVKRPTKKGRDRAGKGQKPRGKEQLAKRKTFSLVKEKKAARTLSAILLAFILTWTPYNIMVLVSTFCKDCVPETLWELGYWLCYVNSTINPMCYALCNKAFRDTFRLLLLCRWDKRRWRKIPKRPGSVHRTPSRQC
Description: hM1 cDNA was purchased from Missouri S&T cDNA Resource and used to stably transfect CHO-K1 cells purchased from the American Type Culture Collection using Lipofectamine2000. hM1 cells were grown in Ham's F-12 medium containing 10% heat-inactivated fetal bovine serum (FBS), 20 mM HEPES, and 50 μg/mL G418 sulfate.
For high throughput measurement of agonist-evoked increases in intracellular calcium, CHO-K1 cells stably expressing muscarinic receptors were plated in growth medium lacking G418 and hygromycin at 15,000 cells/20 μL/well in Greiner 384-well black-walled, tissue culture (TC)-treated, clear-bottom plates (VWR). Cells were incubated overnight at 37° C. and 5% CO2. […]
Calcium flux was measured using the Functional Drug Screening System (FDSS) 6000 (Hamamatsu Corporation, Tokyo, Japan) as an increase in the fluorescent static ratio. […] Agonist activity was analyzed as a concentration-dependent increase in calcium mobilization upon compound addition. […] Positive allosteric modulator activity was analyzed as a concentration-dependent increase in the EC20 acetylcholine response. Antagonist activity was analyzed as a concentration-dependent decrease in the EC80 acetylcholine response; for the purposes of the tables herein, an IC50 (inhibitory concentration 50) was calculated as a concentration-dependent decrease of the response elicited by an EC80 concentration of acetylcholine. […]

[1] = tested on: catalepsy induced by the DA receptor antagonist haloperidol; conditions: cited from earlier work

Row | Human M4 Emin (Human M4) | SMILES | further results
1 | 3% | [2H]C([2H])(C1CCOC(C)(C)C1)N1C[C@H]2C[C@H](Nc3ccc(-c4cnccc4C(F)(F)F)nn3)C[C@H]2C1 (single isomer, unassigned) [Compound 58] | 
2 | 2% | [2H]C([2H])([C@@H]1CCCOC1)N1C[C@H]2C[C@H](Nc3ccc(-c4cccnc4C(F)(F)F)nn3)C[C@H]2C1 [Compound 47, (3aR,5s,6aS)-2-(((S)-tetrahydro-2H-pyran-3-yl)methyl-d2)-N-(6-(2-(trifluoromethyl)pyridin-3-yl)pyridazin-3-yl)octahydrocyclopenta[c]pyrrol-5-amine] | 

Continued, compound first:

Row | SMILES | Human M4 Emin (Human M4) | further results
3 | [2H]C1([2H])CC(C([2H])([2H])N2C[C@H]3C[C@H](Nc4nnc(-c5cnccc5C(F)(F)F)cc4C)C[C@H]3C2)CC([2H])([2H])O1 [Compound 18, (3aR,5s,6aS)-N-(4-methyl-6-(4-(trifluoromethyl)pyridin-3-yl)pyridazin-3-yl)-2-((tetrahydro-2H-pyran-4-yl-2,2,6,6-d4)methyl-d2)octahydrocyclopenta[c]pyrrol-5-amine] | 4% | 
4 | [2H]C1([2H])CC(C([2H])([2H])N2C[C@H]3C[C@H](Nc4nnc(-c5cnccc5C(F)(F)F)cc4OC)C[C@H]3C2)CC([2H])([2H])O1 [Compound 22, (3aR,5s,6aS)-N-(4-methoxy-6-(4-(trifluoromethyl)pyridin-3-yl)pyridazin-3-yl)-2-((tetrahydro-2H-pyran-4-yl-2,2,6,6-d4)methyl-d2)octahydrocyclopenta[c]pyrrol-5-amine] | 2% | 
5 | [2H]C([2H])([C@H]1CCCCO1)N1C[C@H]2C[C@H](Nc3ccc(-c4cccnc4C(F)(F)F)nn3)C[C@H]2C1 [Compound 49, (3aR,5s,6aS)-2-(((R)-tetrahydro-2H-pyran-2-yl)methyl-d2)-N-(6-(2-(trifluoromethyl)pyridin-3-yl)pyridazin-3-yl)octahydrocyclopenta[c]pyrrol-5-amine] | 2% | 
6 | [2H]C([2H])([C@H]1CCOC(C)(C)C1)N1C[C@H]2C[C@H](Nc3ccc(-c4cccnc4C(F)(F)F)nn3)C[C@H]2C1 [Compound 61, (3aR,5s,6aS)-2-(((S)-2,2-dimethyltetrahydro-2H-pyran-4-yl)methyl-d2)-N-(6-(2-(trifluoromethyl)pyridin-3-yl)pyridazin-3-yl)octahydrocyclopenta[c]pyrrol-5-amine] |  | human mAChR M1 antagonist activity (comparison in words) (Human M1): less human mAChR M1 antagonist activity than compound 62; remaining activity at 30 µM (Human M4; CHO-K1, read-out: Human M4 Emin): 8%
7 | CN1[C@@H]2C[C@@H](OC(=O)[C@H](CO)c3ccccc3)C[C@H]1[C@@H]1O[C@@H]12 [scopolamine] |  | reduction of haloperidol-induced catalepsy ([1]; M4KO mice): ineffective in reducing catalepsy; reversal of haloperidol-induced catalepsy ([1]; WT mice): completely reversed
